Source: patent US8586566B2, “Unsaturated heterocyclic derivatives” (ARIAD Pharmaceuticals, Inc., priority 2005, dated 2013)

melting point [°C] | SMILES
160 to 162 | Cc1ccc(NC(=O)Nc2cccc(C(F)(F)F)c2)cc1/C=C/n1cnc2c(NC3CC3)ncnc21 [Example 6, (E)-1-(3-(2-(6-(Cyclopropylamino)-9H-purin-9-yl)vinyl)-4-methylphenyl)-3-(3-(trifluoromethyl)phenyl)urea]
230 to 234 | Cc1ccc(NC(=O)c2cccc(C(F)(F)F)c2)cc1/C=C/n1cnc2c(Nc3ccc(P(C)(C)=O)cc3)ncnc21 [Example 3, (E)-N-(3-(2-(6-(4-(Dimethylphosphoryl)phenylamino)-9H-purin-9-yl)vinyl)-4-methylphenyl)-3-(trifluoromethyl)benzamide]
201 | Cc1ccc(C(=O)Nc2cccc(C(F)(F)F)c2)cc1/C=C/n1cnc2c(NC3CC3)ncnc21 [Example 5, (E)-3-(2-(6-(Cyclopropylamino)-9H-purin-9-yl)vinyl)-4-methyl-N-(3-(trifluoromethyl)phenyl)benzamide]
